Laboratory results as given in patent publication US20080206253A1, “Method For Preventing or Treating Pain in a Mammal” (priority 2005, published 2008).
Entries after “also recorded” stand apart in the source; their conditions may differ. No end group written: not given here.

Key:
Assay type in all cases: in vivo, rat
[1] = system: rats, formalin-injected hind paw; assay: Formalin-induced flinching (paw formalin test); conditions: IT injection 3-30 μg 10 minutes prior to formalin; 30 μg: P<0.05 versus vehicle
Description: In recent work it was shown that inhibition of spinal p38 MAP kinase attenuated formalin-induced flinching. Svensson et al., J Neurochem 86: 1534-1544, 2003b. To examine the contribution of p38α and p38β in this experimental model of hyperalgesia, animals were injected with p38α, p38β AS or MS IT for five days. These animals were then examined on the formalin test. Unilateral intraplantar formalin solution (2.5%) caused a biphasic flinching pattern where the first 9 minutes are referred to as phase I and the following 50 minutes (min 10-60) as phase II. Yaksh et al., J Neurosci 21: 5847-5853, 2001a. The phase II flinching is considered to represent afferent input initiated spinal facilitation. Dickenson and Sullivan, Neurosci Lett 83: 207-211, 1987; Puig and Sorkin, Pain 64: 345-355, 1996. […] To further confirm the role of p38 to injury-induced pain behavior, a pharmacological inhibitor was also studied: SB203580, a p38α/β non-selective inhibitor.
To quantify formalin induced flinching, an automated sensing system was employed. Yaksh et al., J Appl Physiol 90: 2386-2402, 2001b. Briefly, a soft metal band was placed on the hind paw of the animal being tested. Animals were allowed to acclimate in individual Plexiglas chambers for 30 min before being moved to a test chamber. Just before the animals were placed into the test chamber, they were briefly restrained in a cloth towel, and 2.5% formalin (50 μl) was injected into the dorsal side of the banded paw. Nociceptive behavior was quantified by automatically counting the incidences of spontaneous flinching or shaking of the injected paw. The flinches were counted for 1-min periods for 60 minutes and the flinch data are expressed as number of flinches per min and total flinches observed during phase I (0-9 min) and phase II (10-60 min).

PGE2 = assay: IT SP-evoked spinal PGE2 release (intrathecal dialysis, ELISA)
Description: It was previously shown that intrathecal injection of SP and NMDA, but not vehicle, evokes PGE2 release assessed by spinal dialysis. Hua et al., Neuroscience 89: 525-534, 1999b.; Svensson et al., Neuroreport 14: 1153-1157, 2003a. It has been reported that PLA2 which generates free arachidonic acid necessary for eicosanoid synthesis, requires phosphorylation to become fully activated and that this phosphorylation can be mediated by p38 MAP kinase. Borsch-Haubold et al., Eur J Biochem 245: 751-759, 1997. The effect of spinal p38α/β inhibition was assessed on IT S P-evoked PGE2 release by injecting SB203580 15 min prior to IT SP. Resting release of PGE2 was determined after a washout period of 30 min. In the absence of pretreatment, baseline dialysate concentrations were determined to be 243±13 femtomol/100 μl perfusate (N=20). If SP (30 nmol) produced a 6-8 fold increase in PGE2 level in intrathecal CSF (FIG. 8A). […] If injection of vehicle prior to IT SP ad no effect on IT SP-evoked PGE2 release.
(A) Bar graph showing PGE2 concentration (fmol/100 μl) measured in cerebrospinal fluid collected by in vivo spinal dialysis of conscious rats before and after IT injection of substance P(SP, 30 nmol) and SB302580 (30 μg). Spinal dialysate is removed and assayed for PGE2 by ELISA at baseline (B, average of two 15 min fractions collected prior to IT injection of SP) and F1: 0-15 minutes, F2: 15-30 minutes and F3: 30-45 minutes and 45-60 minutes after SP injection. Rats received IT SP or IT SB203580 (α/βp38 inhibitor) 15 minutes prior to IT SP. (B) PGE2 release is presented as area under curve (AUC) calculated 60 minutes after IT injection of SP with or without pretreatment with p38 inhibitors. […] Each bar represents the average and SEM for 4-8 rats per group and (*) represents P<[…] versus baseline.
Intrathecal Dialysis & PGE2 assay. Dialysis experiments were conducted in unanethetized rats 4-5 days after the implant. […] The concentration of PGE2 in spinal dialysate was measured by ELISA using a commercially available kit (Assay Designs 90001, Assay Designs, Ann Arbor, Mich.). […]

[2] = system: rats, IT SP (spinal NK-1 receptors); assay: IT substance P-evoked thermal hyperalgesia (paw withdrawal latency, Hargreaves device); conditions: IT SP 30 nmol at T=0, versus IT saline
Description: (§1) Yaksh et al., Nature 286: 155-157, 1980; Yaksh, Trends Pharmacol Sci 20: 329-337, 1999. […] Malmberg and Yaksh, Science 257: 1276-1279, 1992; Svensson et al., J Neurochem 86: 1534-1544, 2003. […] To investigate the contribution of p38α and p38β to SP-evoked hyperalgesia and p38 phosphorylation, spinal delivery of p38α and p38β AS and MS was carried out. Thermal withdrawal latencies was assessed after IT injection of SP and lumbar spinal cords collected immediately to compare the degree of spinal p38 phosphorylation at the hypothesized time of peak phosphorylation. IT injection of SP into the MS group produced an expected reduction of thermal withdrawal latency in comparison with IT saline injection into to vehicle treated animals (FIG. 7C). […] In contrast, IT SP-induced thermal hyperalgesia was attenuated in rats which had received p38β AS (FIG. 7E). […] Stripping and reprobing the western blot membranes confirmed that p38α protein expression was knocked down in p38α AS treated group (FIG. 7D) as well as p38β in the p38β AS group (FIG. 7F).
Nociceptive models. To directly induce spinal sensitization, rats received intrathecal injections of sP (30 nmol) which activates spinal NK-1 receptors and produces thermal hyperalgesia. Hua et al., Neuroscience 89: 525-534, 1999a; Piercey et al., Science 214: 1361-1363, 1981; Yashpal and Henry, Can J Physiol Pharmacol 61: 303-307, 1983. Thermally evoked paw withdrawal responses were assessed using a Hargreaves type testing device. Dirig et al., J Neurosci Methods 76: 183-191, 1997. Briefly, rats were placed on a glass surface maintained at 30° C. The thermal nociceptive stimulus originates from a projection bulb below the glass surface, and the stimulus is delivered separately to one hind paw at a time. The animals were allowed to acclimatize on the glass surface and basal paw withdrawal latencies (PWL) were then assessed for left and right paws at time (T)=−40, =30 and −20 min and expressed as the mean of the six measurements. At T=−10 min the animals received intrathecal vehicle or drug and at T=0, sP was injected. Withdrawal latencies were then assessed at T=15, 30, 45 and 60 min. Paw withdrawal latency for each group was expressed as the mean at each time point.

[3] = system: phosphorylated p38 (P-p38); assay: IT substance P-evoked spinal p38 phosphorylation (Western blot); conditions: IT SP 30 nmol, at 30 min, N=6, P<0.05
Description: as §1
(A) Graph displaying paw withdrawal latency (PWL) plotted versus time. […] (B) Representative western blots showing levels of P-p38, total p38 and β-actin in lumbar spinal cord at different time points after IT injection of SP (30 nmol). IT-SP induced p38 phosphorylation peaks 30 minutes after SP injection. (C, E) Graph showing PWL assessed 15 and […] after bolus injection of IT saline or IT SP injection in rats treated with IT ACSF, MS (30 μg), p38α AS (30 fig) or p38β AS (20 μg) daily for five days. […] IT injection of MS or ACSF had no effect on IT SP-evoked thermal hyperalgesia. Each time point represents the mean ±SEM (n=4-5 per group). (D, F) Representative western blots showing the level of P-p38, p38α and p38β and β-actin protein expression assessed 30 minutes after IT SP injection.
Western blot. Prior to sacrifice, rats were deeply anesthetized and after decapitation the spinal cords were ejected from the vertebral column by a saline-filled syringe. The lumbar part of the spinal cord was immediately homogenized in extraction buffer (50 mM Tris buffer, pH 8.0, containing 0.5% Triton X-100, 150 mM NaCl, 1 mM EDTA, phosphatase and protease inhibitors) by sonication. […] After washing, the antibody-protein complexes were probed with appropriate secondary antibodies labeled with horseradish peroxidase for 1 hr at room temperature and detected with chemiluminescent reagents (SuperSignal, Pierce, Rockford, Ill.). […] Intensity of immunoreactive bands was quantified using ImageQuant software (Molecular Dynamics, Sunnyvale, Calif.). p38 immuno-positive bands were normalized relative to β-actin.

Row | Molecule | flinching during phase II [1] | SP-evoked release of PGE2, AUC between groups (PGE2; 30 μg IT prior to SP, AUC 60 minutes after IT SP, unpaired t-test P<0.05) | IT SP-evoked PGE2 release (PGE2; pretreatment 30 μg IT, 15 min prior to IT SP 30 nmol) | paw withdrawal latency (PWL) after IT injection [2] | phosphorylation of spinal p38, peak effect, increase as compared to saline group [3] [%] | increase in PGE2 level in intrathecal CSF (PGE2; IT SP 30 nmol, spinal dialysis, conscious rats)
1 | C[S+]([O-])c1ccc(-c2nc(-c3ccncc3)c(-c3ccc(F)cc3)[nH]2)cc1 (stereo not drawn) [SB203580, reference compound] | dose-dependent attenuation; also recorded: statistically different | significantly lower | prevented IT SP-evoked PGE2 release |  |  | 
2 | SP: substance P (Sigma), injected IT to activate spinal NK-1 receptors and produce thermal hyperalgesia (RPKPQQFFGLM-NH2; UniProt P20366 58-68, looked up) [reference compound] |  |  |  | transient decrease in PWL | 224±41 | 6-8 fold
